Experiments:
[1] = system: ornithine decarboxylase (ODC); assay: ODC/Retinoid Bioassay: inhibition of TPA induced ornithine decarboxylase activity; format: in vivo, CD-1 mice; conditions: for ODC activity reduction: topical, 1.7 nM (as printed in Table 2), TPA induced
Protocol: The ODC/Retinoid Bioassay is based on the method of Verma, A. K. and Boutwell, R. K., Cancer Res. (1977) 37:2196-2201. The ODC assay measures a compounds effect on the prevention of the induction of ODC, namely the effect of the retinoid compound on the inhibition of the tumor promoter 12-O-tetradecanoylphorbol-13-acetate (TPA) induced ODC activity. The assay is carried out using CD-1 mice (aged 7 to 9 weeks). The dorsal hair of the mice is shaved 3-4 days before testing. Four mice are used for each point. The test retinoids, at one of two dose levels (1.7 and 17 nmoles) dissolved in 0.2 ml of acetone is applied topically to the back of each shaved mouse. A single dose of TPA ([…]) is applied to the back of each treated mouse 30 minutes later. Control groups are treated with either acetone alone, TPA, or tretinoin. The mice are sacrificed by cervical dislocation 5 hours after TPA treatment.
The dorsal skin encompassing the shaved and TPA exposed area is excised and placed in a 100 ml beaker containing distilled water maintained at 51° C.-57° C. The skin is soaked for 50-70 seconds at this temperature with intermittent stirring. The skin is placed epidermis side up in a chilled (0°-5° C.) stainless steel plate and the epidermal layer is scraped off with a razor blade. The epidermal layers from the 4 mice are pooled and placed in a homogenization tube with 2 ml of ODA buffer ([…] with […] pyridoxal phosphate, […] ethylenediaminetetraacetic acid (EDTA), 1 mM dithiothreitol, pH 7.5). The pooled epidermal layers are homogenized for 15 seconds at 0° C. using a Polytron homogenizer at a setting of 7.5. The homogenate is centrifuged at 30,000×g and the supernatant fraction is pipetted into a storage tube and frozen for about 72 hours.
The homogenate is assayed for ODC activity as described by Verma and Boutwell to measure the release of ^14 CO2 from labeled DL(1-14C) ornithine. Incubations are carried out in disposable centrifuge tubes with center well holders containing filter paper impregnated with sodium hydroxide to absorb ^14 CO2. The incubation mixture consisted of 90 μl of L-ornithine, 350 μl of ODC buffer, 100 μl of 14C-ornithine (1.32 nm, Sp. Act:4.4 pCi/pM) and 10 μl of test sample. After incubation at 37° C. for 45 minutes, 0.5 ml of 2M chilled citric acid (4° C.) is added and incubation is continue for an additional 30 minutes to insure complete absorption of ^14 CO2. The filter paper is removed from the center well holders and set in 1 ml of water in capped scintillation vials for at least 1 hour before adding RBI 3820 scintillation cocktail. Radioactivity is measured in a Tri Carb Scintillation Counter. Results are expressed as pmol of ^14 CO2 released in 30 minutes per milligram of protein based on the specific activity of DL-14C-ornithine. The results are expressed in Table 2 below as the % reduction in ODC activity as compared to the control, for the compounds of each of the preceding Examples: […]

[2] = system: pseudocomedone (utriculus) of the rhino mouse; assay: Topical rhino mouse pseudocomedone (utriculus) reduction assay; format: in vivo; design: Utriculus reduction (Table 1) / Utriculus reduction (Table 3): key to the marks not given beside the values; conditions: concentration 0.1 (unit not given)
Protocol: A topical assay to test for pseudocomedone (utriculus) reduction in the rhino mouse is conducted.
Each test compound and a vehicle control is applied topically to the dorsal trunk of the rhino mouse. The utriculus diameters are measured with a ocular micrometer. […] Kligman, et al., The Effect on Rhino Mouse Skin of Agents which Influence Keratinization and Exfoliation, J. Invest. Derm. […] Van Scott, Experimental Animal Integumental Models for Screening Potential Dermatologic Drugs, In Pharmacology of the Skin, eds. […] Mann, Hair Loss and Cyst Formation in Hairless and Rhino Mutant Mice, Anat. Rec. […] Mezick, et al., Topical and Systemic Effects of Retinoids on Horn-Filled Utriculus Size in the Rhino Mouse. A Model to Quantify Antikeratinizing Effects of Retinoids, J. Invest. Derm. […] Mezick, et al., Anti-Acne Activity of Retinoids in the Rhino Mouse, In Models in Dermatology, eds.
(§1) The dorsal trunk of the rhino mouse is the test site. Each test compound is dissolved in alcohol:propylene glycol (70:30, v:v) or other suitable vehicle and topically applied (0.1 ml) to the dorsal trunk once daily, five consecutive days/week for two weeks. Also, administration may be oral (p.o.) in a suitable vehicle. Following treatment, the animals are sacrificed by cervical dislocation. The treated dorsal trunk skin is removed from the animal and placed into 0.5% acetic acid for up to 18 hours at approximately 4° C. After this, the epidermis with the acne cysts is separated from the underlying dermis. The sheets of epidermis are processed by routine methods to permanent whole mounts for microscopic examination. Also, full-thickness samples may be taken, stained (H&E), and examined by light microscopy.
The utriculus diameters are measured with an ocular micrometer to compare effects of test compounds to vehicle control and/or reference compound on cyst reduction. Light microscopy is used to determine effects on cell differentiation.
Another topical assay is conducted following the procedure described above.
Each test compound and a vehicle control was applied topically to the dorsal trunk of the rhino mouse. The utriculus diameters are measured with a ocular micrometer. […] Kligman, et al., J. Invest. […] Van Scott, Pharmacology of the Skin, eds. […] Mann, Anat. […] Mezick, et al, J. Invest. […] Mezick et al., Models in Dermatology, eds.
as §1, with “(70:30,v:v)” for “(70:30, v:v)”, “weeks.” for “weeks. Also, administration may be oral (p.o.) in a suitable vehicle.”, “"acne cysts"” for “acne cysts”, “are” for “may be”, “(H&E)” for “(H&E),”, “microscope.” for “microscopy.”

[3] = system: Human neonatal foreskin fibroblasts; assay: Growth of human neonatal foreskin fibroblasts (cell number); format: cell-based; conditions: for Number of fibroblasts: two days
From the text: (§2) Human neonatal foreskin keratinocytes and human neonatal foreskin fibroblasts were isolated and grown in monlayer culture. Culture medium for keratinocytes was Keratincyte Growth Medium (KGM) from Clonetics, Inc., San Diego. Calif. The culture medium for fibroblasts was Dulbecco's Modified Eagle's Medium (DMEM) supplemented with non-essential amino acids and 10% fetal bovine serum. The culture medium was obtained from GIBCO, Grand Island, N.Y. and the FBS was from Hyclone Labs, Inc., Logan, Utah.
Cells at passage 2-4 were plated in wells of a 24 well dish at approximately 5×10^4 cells per well in their respective culture medium. Incubation was at 37° C. with 5% CO2. After the cells attached and spread overnight, they were washed two times in serum-free keratincyte basal medium (KBM) and incubated in 1 ml of KBM or in 1 ml of KGM. Compound IV was added in varying concentrations to the wells. All-trans-retinoic acid (or no treatment) was added to control wells. The cells were incubated for an additional two days for fibroblasts and three days for keratinocytes, and were then harvested and counted. The effect of IV and of the controls are shown for both cell types in Tables 9 and 10: […]

[4] = system: Human neonatal foreskin keratinocytes; assay: Growth of human neonatal foreskin keratinocytes (cell number); format: cell-based; conditions: for Number of keratinocytes, KGM / Number of keratinocytes, KMB: three days
From the text: as §2
Cells at passage 2-4 were plated in wells of a 24 well dish at approximately 5×10^4 cells per well in their respective culture medium. Incubation was at 37° C. with 5% CO2. After the cells attached and spread overnight, they were washed two times in serum-free keratincyte basal medium (KBM) and incubated in 1 ml of KBM or in 1 ml of KGM. Compound IV was added in varying concentrations to the wells. […] The cells were incubated for an additional two days for fibroblasts and three days for keratinocytes, and were then harvested and counted.

In the case of `CC1=C(/C=C/C(C)=C\C=C\C(C)=C\C(=O)OCC(=O)COC(=O)/C=C(C)/C=C/C=C(C)\C=C\C2=C(C)CCCC2(C)C)C(C)(C)CCC1` [Compound 4, 1,3-bis-(9-cis-retinoyloxy)-2-propanone], the ODC activity reduction [1] was “+++”.
In the case of `CC1=C(/C=C/C(C)=C\C=C\C(C)=C\C(=O)OCC(=O)c2ccccc2)C(C)(C)CCC1` [Compound 5, 9-cis-retinoyloxy methyl phenyl ketone], the “Utriculus reduction (Table 3)” value [2] was “++” and the ODC activity reduction [1] was “++”.
In the case of `CC1=C(/C=C/C(C)=C\C=C\C(C)=C\C(=O)OCOC(=O)C(C)(C)C)C(C)(C)CCC1` [Compound 6, 9-cis-retinoyloxymethyl 2,2-dimethylpropanoate], the “Utriculus reduction (Table 3)” value [2] was “+++” and the ODC activity reduction [1] was “+++”.
`CC1=C(/C=C/C(C)=C\C=C\C(C)=C\C(=O)OCC(=O)CO)C(C)(C)CCC1` [Compound 8, 1-(9-cis-retinoyloxy)-3-hydroxy-2-propanone] was tested, and the ODC activity reduction [1] was “+++”.
In the case of `CCCCCCCC/C=C\CCCCCCCC(=O)OCC(COC(=O)/C=C(C)/C=C/C=C(C)\C=C\C1=C(C)CCCC1(C)C)OC(=O)CCCCCCC/C=C\CCCCCCCC` (stereo not drawn) [Compound 9, 1-(9-cis-retinoyloxy)-2,3-dioleoylpropane], the ODC activity reduction [1] was “++”.
For `CC1=C(/C=C/C(C)=C\C=C\C(C)=C\C(=O)ON2C(=O)CCC2=O)C(C)(C)CCC1` [Compound 10, Succinimidyl 9-cis-retinoate], the “Utriculus reduction (Table 3)” value [2] was “++” and the ODC activity reduction [1] was “+++”.
In the case of `CC1=C(/C=C/C(C)=C\C=C\C(C)=C\C(=O)OCC(=O)C(C)(C)C)C(C)(C)CCC1` [Compound IV], the Number of fibroblasts ([3]; 0.1 μg/ml) was 6.4 ± 0.6 × 10^4 cells, the Number of fibroblasts ([3]; 0.25 μg/ml) was 5.8 ± 0.1 × 10^4 cells and the Number of fibroblasts ([3]; 0.5 μg/ml) was 5.5 ± 0.8 × 10^4 cells. The Number of fibroblasts ([3]; 1.0 μg/ml) was 7.9 ± 0.1 × 10^4 cells, the Number of fibroblasts ([3]; 5.0 μg/ml) was 8.5 ± 0.6 × 10^4 cells and the Number of fibroblasts ([3]; 10.0 μg/ml) was 7.5 ± 0.9 × 10^4 cells. The “Effect on fibroblasts (summary of Tables 9 and 10)” value ([3]; compared with retinoic acid) was “less active result with fibroblasts”, the “Number of keratinocytes, KGM” value ([4]; 0.10 μg/ml) was 27.4 ± 0.1 × 10^4 cells and the “Number of keratinocytes, KMB” value ([4]; 0.10 μg/ml) was 13.1 ± 0.5 × 10^4 cells. For the same molecule, the “Number of keratinocytes, KGM” value ([4]; 0.25 μg/ml) was 25.9 ± 0.4 × 10^4 cells, the “Number of keratinocytes, KGM” value ([4]; 0.5 μg/ml) was 22.5 ± 0.1 × 10^4 cells and the “Number of keratinocytes, KMB” value ([4]; 0.5 μg/ml) was 13.8 ± 2.4 × 10^4 cells. The “Number of keratinocytes, KGM” value ([4]; 1.0 μg/ml) was 21.2 ± 0.8 × 10^4 cells, the “Number of keratinocytes, KMB” value ([4]; 1.0 μg/ml) was 14.0 ± 0.9 × 10^4 cells and the “Number of keratinocytes, KGM” value ([4]; 5.0 μg/ml) was 6.4 ± 0.1 × 10^4 cells. For the same molecule, the “Number of keratinocytes, KMB” value ([4]; 5.0 μg/ml) was 11.2 ± 1.2 × 10^4 cells, the “Number of keratinocytes, KGM” value ([4]; 10.0 μg/ml) was 4.5 ± 0.2 × 10^4 cells and the “Number of keratinocytes, KMB” value ([4]; 10.0 μg/ml) was 8.4 ± 0.2 × 10^4 cells. For the same molecule, the “Effect on keratinocytes (summary of Tables 9 and 10)” value ([4]; compared with retinoic acid) was “potent "retinoid" effect on keratinocytes”.
In the case of `CCCCCCCCCCCCCC(=O)O[C@@H]1[C@@H](C)[C@@]2(O)[C@@H](C=C(CO)C[C@]3(O)C(=O)C(C)=C[C@@H]23)[C@@H]2C(C)(C)[C@]12OC(C)=O` [TPA, 12-O-tetradecanoylphorbol-13-acetate, reference compound], the “ODC activity reduction (TPA control)” value ([1]; TPA 17.0 nM, control) was 0 nM ^14 CO2 /30 min/mg Protein.

From patent US5837728A, “9-cis retinoic acid esters and amides and uses thereof” (priority 1995, dated 1998)
